Test results from article PMC8237267 (Journal of Medicinal Chemistry, 2021).
Values joined by “and” are separate entries in the source; they are usually repeats but may differ in a detail not shown here. Identical values can stand only once. Like-named read-outs stand apart in the source and are kept apart here.

What was measured:
HDAC11 = molecular target: T1, HDAC11 (Homo sapiens, UniProt Q96DB2); experiment: HDAC EMSA activity assay (Nanosyn); assay type: biochemical; details: recombinant enzyme, read-out: In vitro IC50 HDAC11
T1 construct: The full-length human HDACs were recombinantly expressed and purified from SF9 insect cells; host or cells: SF9 insect cells
T1 sequence (Q96DB2 1-347): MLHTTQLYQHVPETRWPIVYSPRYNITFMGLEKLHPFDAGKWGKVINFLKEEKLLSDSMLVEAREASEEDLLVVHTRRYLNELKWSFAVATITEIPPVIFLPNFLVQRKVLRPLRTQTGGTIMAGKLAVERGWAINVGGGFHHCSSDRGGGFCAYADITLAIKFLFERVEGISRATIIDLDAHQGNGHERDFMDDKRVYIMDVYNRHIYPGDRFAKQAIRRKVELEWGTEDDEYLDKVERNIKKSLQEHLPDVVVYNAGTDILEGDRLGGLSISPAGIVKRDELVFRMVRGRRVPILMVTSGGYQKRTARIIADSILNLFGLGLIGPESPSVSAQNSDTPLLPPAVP

MV4-11 = experiment: Cytotoxicity assay (Cell Titer-Blue, 72 h); assay type: cell-based; details: for IC50: Homo sapiens
HDAC3 = molecular target: T2, HDAC3 (Homo sapiens, UniProt O15379); experiment: HDAC EMSA activity assay (Nanosyn); assay type: biochemical; details: recombinant enzyme, read-out: In vitro IC50 HDAC3
T2 construct: The full-length human HDACs were recombinantly expressed and purified from SF9 insect cells; host or cells: SF9 insect cells
T2 sequence (O15379 whole entry): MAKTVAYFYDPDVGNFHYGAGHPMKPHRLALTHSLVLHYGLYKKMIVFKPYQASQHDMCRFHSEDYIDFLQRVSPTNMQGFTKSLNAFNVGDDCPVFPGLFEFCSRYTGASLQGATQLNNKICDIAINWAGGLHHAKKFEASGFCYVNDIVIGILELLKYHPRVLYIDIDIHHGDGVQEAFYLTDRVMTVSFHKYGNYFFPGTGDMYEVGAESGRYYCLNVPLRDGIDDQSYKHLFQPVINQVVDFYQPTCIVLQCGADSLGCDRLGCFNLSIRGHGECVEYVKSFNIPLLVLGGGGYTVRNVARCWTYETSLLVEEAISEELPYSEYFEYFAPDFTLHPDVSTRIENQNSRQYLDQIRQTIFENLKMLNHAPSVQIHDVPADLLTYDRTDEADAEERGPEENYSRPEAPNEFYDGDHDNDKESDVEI
T2 sequence (Q9Y618 395-489 partner limits assumed): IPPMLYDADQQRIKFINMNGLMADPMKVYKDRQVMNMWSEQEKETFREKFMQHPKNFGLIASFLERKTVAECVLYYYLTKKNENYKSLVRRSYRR

HDAC6 = molecular target: T3, HDAC6 (Homo sapiens, UniProt Q9UBN7); experiment: HDAC EMSA activity assay (Nanosyn); assay type: biochemical; design: The full-length human HDACs were recombinantly expressed and purified from SF9 insect cells; host or cells: SF9 insect cells; details: for IC50: EMSA (Nanosyn); for HDAC6 fold-selectivity: over the next closest HDAC isoform tested, * = selectivity ≥ indicated value
T3 sequence (Q9UBN7 1-1215): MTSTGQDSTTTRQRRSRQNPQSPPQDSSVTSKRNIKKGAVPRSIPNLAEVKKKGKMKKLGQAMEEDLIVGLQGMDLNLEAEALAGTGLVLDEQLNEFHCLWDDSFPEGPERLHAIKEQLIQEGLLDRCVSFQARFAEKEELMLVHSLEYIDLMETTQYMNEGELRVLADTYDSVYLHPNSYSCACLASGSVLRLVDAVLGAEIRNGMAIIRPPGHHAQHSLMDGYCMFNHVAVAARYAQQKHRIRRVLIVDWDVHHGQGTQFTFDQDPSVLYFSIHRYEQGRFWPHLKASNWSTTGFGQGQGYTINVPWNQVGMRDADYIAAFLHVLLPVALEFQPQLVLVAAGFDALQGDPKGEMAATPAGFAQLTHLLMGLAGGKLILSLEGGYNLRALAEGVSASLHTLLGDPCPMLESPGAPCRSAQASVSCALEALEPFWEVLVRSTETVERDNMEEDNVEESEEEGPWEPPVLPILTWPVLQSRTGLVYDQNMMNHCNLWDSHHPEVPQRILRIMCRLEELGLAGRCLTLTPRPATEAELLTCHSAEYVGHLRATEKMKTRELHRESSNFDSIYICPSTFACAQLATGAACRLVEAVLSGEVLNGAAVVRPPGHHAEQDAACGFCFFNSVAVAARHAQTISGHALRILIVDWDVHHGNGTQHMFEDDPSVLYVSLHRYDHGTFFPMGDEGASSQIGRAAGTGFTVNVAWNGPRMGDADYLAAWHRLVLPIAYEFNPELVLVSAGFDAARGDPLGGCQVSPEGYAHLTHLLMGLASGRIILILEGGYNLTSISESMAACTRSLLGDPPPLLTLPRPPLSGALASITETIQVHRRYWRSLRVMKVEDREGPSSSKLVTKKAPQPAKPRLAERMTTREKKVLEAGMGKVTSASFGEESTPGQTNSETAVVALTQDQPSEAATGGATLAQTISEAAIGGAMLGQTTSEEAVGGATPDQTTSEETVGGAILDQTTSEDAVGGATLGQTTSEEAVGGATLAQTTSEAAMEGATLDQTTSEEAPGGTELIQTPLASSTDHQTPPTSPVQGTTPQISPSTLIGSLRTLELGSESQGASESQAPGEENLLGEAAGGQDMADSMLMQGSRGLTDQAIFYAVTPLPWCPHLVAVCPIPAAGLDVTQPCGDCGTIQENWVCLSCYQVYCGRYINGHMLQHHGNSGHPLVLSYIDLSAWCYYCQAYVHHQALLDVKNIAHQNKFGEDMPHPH

MRC-9 = experiment: Cytotoxicity assay (Cell Titer-Blue, 72 h); assay type: cell-based
HDAC8 = molecular target: T4, HDAC8 (Homo sapiens, UniProt Q9BY41); experiment: HDAC EMSA activity assay (Nanosyn); assay type: biochemical; details: for IC50: recombinant enzyme, EMSA (Nanosyn), read-out: In vitro IC50 HDAC8
T4 construct: The full-length human HDACs were recombinantly expressed and purified from SF9 insect cells; host or cells: SF9 insect cells
T4 sequence (Q9BY41 1-377): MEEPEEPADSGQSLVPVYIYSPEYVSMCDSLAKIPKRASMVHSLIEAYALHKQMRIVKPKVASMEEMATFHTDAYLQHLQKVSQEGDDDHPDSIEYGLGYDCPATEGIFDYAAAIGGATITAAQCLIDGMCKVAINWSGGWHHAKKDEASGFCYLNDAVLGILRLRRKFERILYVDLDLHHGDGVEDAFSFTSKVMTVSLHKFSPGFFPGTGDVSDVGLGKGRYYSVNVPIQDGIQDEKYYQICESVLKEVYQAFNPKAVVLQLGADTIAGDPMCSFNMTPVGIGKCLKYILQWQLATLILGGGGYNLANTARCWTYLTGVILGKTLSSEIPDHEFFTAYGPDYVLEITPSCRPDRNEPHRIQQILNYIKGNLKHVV

[1] = Glutathione stability / reactivity assay; assay type: in vitro ADME; details: GSH adduct formation by LC/MS/MS; KT-531 up to 24 h
Method: Although covalent modification of HDAC6 was not observed (Figure S2), the PFBS group is susceptible to nucleophilic aromatic substitution by biological nucleophiles. A previously described high-throughput in vitro glutathione-reactivity assay was conducted, where compounds were incubated in the presence of glutathione (GSH) and the formation of a GSH-compound adduct was monitored over time via LC/MS/MS.[50]
Compound was added to PBS and 5 mM GSH to reach a final concentration of 5 μM. […] Samples were vortexed and centrifuged for 45 min at 3220g. Aliquots were diluted by ultrapure water, and used for LC/MS/MS analysis. Peak area ratios were determined and percent compounds remaining was calculated by the following equation: [drawing 1] where peak area ratio (t min) is the peak area ratio of control and test compounds at t min; peak area ratio0min is the peak area ratio of control and test compounds at the zero time point. In vitro half-life (t1/2) = −(0.693/k).

[2] = MV4-11 (AML), read-out: In cellulo IC50 MV4-11
[3] = MRC9, MRC-9 (healthy fibroblasts), read-out: In cellulo IC50 MRC-9
[4] = recombinant enzyme, read-out: In vitro IC50 HDAC6

Row | SMILES | IC50 (HDAC11) | IC50 (MV4-11; [2]) | IC50 (HDAC3) | IC50 (HDAC6; read-out: IC50 HDAC6) | HDAC6 fold-selectivity (HDAC6) | IC50 (MRC-9; [3]) | IC50 (HDAC8) | IC50 (HDAC6; [4]) | selectivity toward HDAC8 (HDAC8) | reactivity with glutathione [1] | IC50 (MV4-11; MV4-11, read-out: In cellulo IC50 MV4-11) | IC50 (MRC-9; MRC9, read-out: In cellulo IC50 MRC-9) | activity in MV4-11 cells (MV4-11) | activity in MRC9 cells (MRC-9)
1 | O=C(NO)c1ccc(CN(C2CC2)S(=O)(=O)c2c(F)c(F)c(Cl)c(F)c2F)cc1 [Compound 13, 4-(((4-Chloro-N-cyclopropyl-2,3,5,6-tetrafluorophenyl)sulfonamido)methyl)-N-hydroxybenzamide] | > 1000 nM | 1380 nM | > 1000 nM | 70 nM | 14.3 fold and ≥ 14.3* fold | > 30000 nM | > 1000 nM | – | – | – | – | – | – | –
2 | CCCCN(Cc1ccc(C(=O)NO)cc1)C(=O)Nc1ccccc1 [Nexturastat, reference compound] | – | 1680 nM | – | – | – | – | – | – | – | – | – | – | – | –
3 | O=C(NO)c1cccc(CN(C2CC2)S(=O)(=O)c2c(F)c(F)c(F)c(F)c2F)c1 [Compound 10, 3-(((N-Cyclopropyl-2,3,4,5,6-pentafluorophenyl)sulfonamido)methyl)-N-hydroxybenzamide] | > 1000 nM | 1900 nM | > 1000 nM | – | – | > 50000 nM | 108 nM | 488 nM | 4 fold | – | – | – | – | –
4 | O=C(NO)c1ccc(CN(C2CC2)S(=O)(=O)c2c(F)cc(F)cc2F)cc1 [Compound 9, 4-(((N-Cyclopropyl-2,4,6-trifluorophenyl)sulfonamido)methyl)-N-hydroxybenzamide] | > 1000 nM | 8940 nM | > 1000 nM | – | 39.4 fold | > 20000 nM | 315 nM | 8 nM | – | – | – | – | – | –
5 | O=C(NO)c1ccc(CN(C2CC2)S(=O)(=O)c2c(F)cc(F)c(Cl)c2F)cc1 [Compound 12, 4-(((3-Chloro-N-cyclopropyl-2,4,6-trifluorophenyl)sulfonamido)methyl)-N-hydroxybenzamide] | > 1000 nM | 740 nM | > 1000 nM | – | 22.3 fold | > 20000 nM | 201 nM | 9 nM | – | – | – | – | – | –
6 | CN(Cc1ccc(C(=O)NO)cc1)S(=O)(=O)c1c(F)c(F)c(F)c(F)c1F [Compound 3, N-Hydroxy-4-(((2,3,4,5,6-pentafluoro-N-methylphenyl)sulfonamido)methyl)benzamide] | 246 nM | – | – | – | – | > 30000 nM | 184 nM | 2 nM | – | react readily with glutathione | – | – | – | –
7 | CC(C)N(Cc1ccc(C(=O)NO)cc1)S(=O)(=O)c1c(F)c(F)c(F)c(F)c1F [Compound 4, N-Hydroxy-4-(((2,3,4,5,6-pentafluoro-N-isopropylphenyl)sulfonamido)methyl)benzamide] | 941 nM | – | 932 nM | – | – | > 10000 nM | 653 nM | 4 nM | – | react readily with glutathione | – | – | – | –
8 | O=C(CCCCCCNC(=O)c1cnc(N(c2ccccc2)c2ccccc2)nc1)NO [Ricolinostat, reference compound] | – | – | – | – | – | – | – | – | – | – | 810 nM | > 20000 nM | – | –
9 | O=C(NO)c1ccc(CN(C2CC2)S(=O)(=O)c2c(F)c(Cl)c(F)c(Cl)c2F)cc1 [Compound 11, 4-(((3,5-Dichloro-N-cyclopropyl-2,4,6-trifluorophenyl)sulfonamido)methyl)-N-hydroxybenzamide] | 364 nM | 670 nM | > 1000 nM | – | 14.3 fold | > 50000 nM | 214 nM | 15 nM | – | – | – | – | – | –
10 | O=C(NO)c1ccc(CN(C2CC2)S(=O)(=O)c2ccc(F)cc2)cc1 [Compound 7, 4-(((N-Cyclopropyl-4-fluorophenyl)sulfonamido)methyl)-N-hydroxybenzamide] | > 1000 nM | 8690 nM | 841 nM | – | 25.5 fold | > 50000 nM | 281 nM | 11 nM | – | – | – | – | – | –
11 | O=C(NO)c1ccc(CN(C2CC2)S(=O)(=O)c2cc(F)c(F)c(F)c2)cc1 [Compound 8, 4-(((N-Cyclopropyl-3,4,5-trifluorophenyl)sulfonamido)methyl)-N-hydroxybenzamide] | > 1000 nM | 5980 nM | > 1000 nM | – | 20 fold and 19.5 fold | > 25000 nM | 273 nM | 14 nM | – | – | – | – | – | –
12 | COc1ccc(Cn2ccc3ccc(C(=O)NO)cc32)cc1 [PCI-34051, reference compound] | – | – | – | – | – | – | – | – | – | – | – | – | no observable activity | no observable activity
13 | O=C(NO)c1ccc(CNS(=O)(=O)c2c(F)c(F)c(F)c(F)c2F)cc1 [Compound 2, N-Hydroxy-4-(((perfluorophenyl)sulfonamido)methyl)benzamide] | > 1000 nM | – | > 1000 nM | 389 nM | – | > 25000 nM | > 1000 nM | – | – | – | – | – | – | –
